Values of other authors as cited in US4878891A, “Method for eradicating infectious biological contaminants in body tissues” (Baylor Research Foundation, priority 1987, dated 1989).

What was measured:
[1] = tested on: viral diseases
[2] = tested on: tumor cells
[3] = tested on: cutaneous T-cell lymphoma; conditions: oral; blood fraction exposed to ultraviolet A
[4] = tested on: tumor; conditions: injected; several types of tumor induced in mice
[5] = tested on: malignant tumors; conditions: patients given large doses; ultraviolet light

For `CC[C@]1(O)C[C@H]2CN(CCc3c([nH]c4ccccc34)[C@@](C(=O)OC)(c3cc4c(cc3OC)N(C=O)[C@H]3[C@@](O)(C(=O)OC)[C@H](OC(C)=O)[C@]5(CC)C=CCN6CC[C@]43[C@@H]65)C2)C1` [Vincristine], the “treatment of viral diseases” value [1] is given as “ineffective”.
In the case of `Cc1cn([C@H]2C[C@H](N=[N+]=[N-])[C@@H](CO)O2)c(=O)[nH]c1=O` [3-deoxy-3'-azidothymidine (AZT), 3-deoxy-3'-azidothymidine], the “preventing the proliferation of tumor cells” value [2] is listed as “totally ineffective”.
In the case of `COc1c2occc2cc2ccc(=O)oc12` [8-methoxypsoralen], the “control of cutaneous T-cell lymphoma activity” value [3] is listed as “could be controlled”.
For `CC1=C(CCC(=O)O)c2cc3[nH]c(cc4nc(cc5[nH]c(cc1n2)c(C)c5C(C)O)C(C)=C4C(C)O)c(C)c3CCC(=O)O` (centres unmarked) [hematoporphyrin], the localization in tumors [4] is given as “localized and fluoresced in several types of tumor” and the “red fluorescence in malignant tumors” value [5] is given as “red fluorescence”.
